In brackets after ≈: the same amount, converted by molar mass. Several values for one entry are separate records, joined by “and”; a condition that tells them apart may be missing. Identical values can stand only once. Like-named read-outs stand apart in the source and are kept apart here.
Tests used:
Assay in all cases: microbe, parasite or virus in culture
[1] = test system: Mupirocin-resistant MRSA ATCC-BAA-1556; assay type: cell-based, Staphylococcus aureus; conditions: Staphylococcus aureus
Description: (§1) The MICs of test compounds were determined using the microdilution method from the Clinical and Laboratory Standards Institute (CLSI) guidelines (Clinical and Laboratory Standards Institute. Methods for dilution antimicrobial susceptibility tests for bacteria that grow aerobically; approved standard—ninth edition. Document M07-A9. Vol. 32 No. 2. Wayne, Pa.: CLSI; 2012). Briefly, bacteria were grown fresh from frozen stock in Mueller Hinton 2 (MH2) agar at 37° C. After an overnight incubation, 5 bacteria colonies were selected to grow in cation-adjusted MH2 broth in a shaking incubator (140 RPM) at 37° C. Cells were grown to an optical density (OD600) of 0.15-0.16 determined using a spectrophotometer (Molecular Devices Spectra Max Plus), which corresponds to ˜1×10^8 CFU/mL. Test compounds were constituted into 4 mM DMSO stock solutions and then subjected to 2-fold serial dilution in a 96-well plate with concentrations ranging from 100 to 0.195 μM in duplicates. […] of microbial culture containing ˜1×10^6 CFU/mL of microbes in the respective broths was introduced into each well containing 50 μL of compound solution. After an overnight incubation at 35° C., (220 RPM), OD600 measurements were conducted using the microplate spectrophotometer. The MIC was defined as the lowest antibiotic or compound concentration (μM) required to inhibit bacteria growth.
(§2) The 11th well was used as the growth control well (medium with bacterial inoculums, no antibacterial) while the 12th well was the sterility control well (medium only).

[2] = test system: Mupirocin-resistant MRSA ATCC-BAA-1708; assay type: cell-based, Staphylococcus aureus; conditions: Staphylococcus aureus
Description: as §1, §2

[3] = test system: Mupirocin-resistant MRSA ATCC-BAA-1750 (USA200); assay type: cell-based, Staphylococcus aureus; conditions: Staphylococcus aureus
Description: as §1, §2

[4] = test system: Mupirocin-susceptible MRSA ATCC-33592 (ST239); assay type: cell-based, Staphylococcus aureus; conditions: Staphylococcus aureus
Description: as §1, §2

[5] = test system: Mupirocin-susceptible MRSA ATCC-700699 (VISA); assay type: cell-based, Staphylococcus aureus; conditions: Staphylococcus aureus
Description: as §1, §2

[6] = test system: Mupirocin-susceptible MRSA ATCC-BAA-1681 (USA100); assay type: cell-based, Staphylococcus aureus; conditions: Staphylococcus aureus
Description: as §1, §2

[7] = test system: Mupirocin-susceptible MRSA ATCC-BAA-1707 (USA400); assay type: cell-based, Staphylococcus aureus; conditions: Staphylococcus aureus
Description: as §1, §2

[8] = test system: Mupirocin-susceptible MRSA ATCC-BAA-1754 (ST45); assay type: cell-based, Staphylococcus aureus; conditions: Staphylococcus aureus
Description: as §1, §2

[9] = test system: Mupirocin-susceptible MRSA ATCC-BAA-1756 (USA300); assay type: cell-based, Staphylococcus aureus; conditions: Staphylococcus aureus
Description: as §1, §2

[10] = test system: Mupirocin-susceptible MRSA ATCC-BAA-2762 (EMRSA15, ST22); assay type: cell-based, Staphylococcus aureus; conditions: Staphylococcus aureus
Description: as §1, §2

S. aureus ECL 2963646 = assay type: cell-based; conditions: Staphylococcus aureus, ECL2963646; S. aureus ECL 2963646; CAMHB II; read-out: MIC
Description: (§3) The antibacterial potency of Compound 34 was measured using the in vitro broth microdilution assay under assay conditions described by the Clinical and Laboratory Standards Institute. […] The test substance was dissolved in 100% DMSO (unless stated below), suspended completely by sonication or vortexing, diluted by 2-fold serial titrations in the same vehicle, for a total of 11 test concentrations. A 4 μL aliquot of each dilution was added to 196 μL of broth medium seeded with the organism suspension in wells of a 96 well plate (bacterial count: 2-8×10^5 colony forming units/mL final). The final volume was 200 μL in each well and the final DMSO concentration was 2%. The incubation time is 1 day at 36° C. All strains tested underwent aerobic respiration. Following incubation, the test plates were visually examined and wells were scored for growth or complete growth inhibition to define the minimum inhibitory concentration. Each test substance was evaluated in duplicate and the results below are the duplicate test values. Vehicle-control and an active reference agent were used as blank and positive controls, respectively.

S. aureus NARSA VRS11b = assay type: cell-based; conditions: Staphylococcus aureus; S. aureus NARSA VRS11b; CAMHB II; read-out: MIC
Description: as §3

S. aureus NARSA VRS1 = assay type: cell-based; conditions: Staphylococcus aureus; S. aureus NARSA VRS1; CAMHB II; read-out: MIC
Description: as §3

S. aureus NARSA VRS2 = assay type: cell-based; conditions: Staphylococcus aureus; S. aureus NARSA VRS2; CAMHB II; read-out: MIC
Description: as §3

S. aureus NARSA VRS3a = assay type: cell-based; conditions: Staphylococcus aureus; S. aureus NARSA VRS3a; CAMHB II; read-out: MIC
Description: as §3

[11] = test system: S. aureus (ATCC BAA-1556); conditions: Staphylococcus aureus, ATCCBAA1556, 24 h, read-out: Mean MIC
Description: S. aureus (BAA-1556) was from ATCC. Mupirocin (Cat # M2955) was purchased from TCI chemicals (India) Pvt. […] Ltd, India, Cation adjusted Mueller Hinton broth (CAMHB) and Mueller Hinton Agar (MHA) (Cat # M1657) were from HiMedia Laboratories Pvt. Ltd, India.
The MIC assay was done based on CLSI guidelines in a microtitre plate format (1, 2). Preparation and dilution of Test Item (TI) stock solutions: A 1280 μg/ml stock of Compound 34 was prepared by dissolving 1.28 mg in 1.0 ml of sterile water to obtain the Master Stock (MS) solution. The MS solution was diluted 2-fold to obtain a series of Working Stock (WS) solutions (Table 7). The final concentration of solvent in the assay was 2.5% and the assay volume was […].
Preparing the inoculum: One day before initiation of experiment, an isolated colony of S. aureus (ATCC BAA-1556) was inoculated into sterile CAMHB and incubated at 37° C. to exponential phase. After incubation, the turbidity was adjusted to that of a 0.5 McFarland Standard (approximately equivalent to 1.0×10^8 CFU/ml) and diluted to ˜1.0×10^6 CFU/ml.
MIC Assay: The MIC assay was performed in a 96 well microtitre plate in a total assay volume of 100 μl (Table 7). Each well containing different concentrations of test compound (concentration range between 0.015625 and 16.0 μg/ml) was inoculated with 50 μl of bacterial suspension (prepared from the inoculum grown overnight and adjusted approximately to 5.0×10^5 CFU/ml) along with culture control (CC, culture in broth), broth control (BC, broth only), and vehicle control (VC, 2.5% solvent in broth plus culture). The plate was incubated at 37° C. for 24 hr and turbidity was measured spectrophotometrically (Absorbance microplate reader, BioTek® India, ELx800™) at 600 nm and visually. The experiment was done in duplicates. The inoculum was also plated for enumeration of bacteria. The MIC was defined as the lowest concentration of test compound that prevented bacterial growth (lack of turbidity by OD at 600 nm and visual inspection relative to no growth control).

[12] = test system: Enterococcus faecalis ATCC 51299; assay type: cell-based; conditions: Enterococcus faecalis, ATCC51299
Description: (§4) The antibacterial potency of Compound 34 was measured using the in vitro broth microdilution assay under assay conditions described by the Clinical and Laboratory Standards Institute. […] The test substance was dissolved in 100% DMSO (unless stated below), suspended completely by sonication or vortexing, diluted by 2-fold serial titrations in the same vehicle, for a total of 10 test concentrations (final concentrations: 100, 50, 25, 12.5, 6.25, 3.125, 1.56, 0.78, 0.39, 0.2 μM). A 4 μL aliquot of each dilution was added to 196 μL of broth medium seeded with the organism suspension in wells of a 96 well plate (bacterial count: 2-8×10^5 colony forming units/mL final). The final volume was 200 μL in each well and the final DMSO concentration was 2 percent. The incubation time is either 1 or 2 days at 36° C. All strains tested underwent aerobic respiration, except for ATCC BAA-1805 and ATCC 29399. Following incubation, the test plates were visually examined and wells were scored for growth or complete growth inhibition to define the minimum inhibitory concentration. Each test substance was evaluated in duplicate and the results below are the duplicate test values. Vehicle-control and an active reference agent were used as blank and positive controls, respectively.

[13] = test system: Enterococcus faecium ATCC BAA-2320; assay type: cell-based; conditions: Enterococcus faecium, ATCCBAA2320
Description: as §4

[14] = test system: Staphylococcus aureus ATCC 19636; assay type: cell-based; conditions: Staphylococcus aureus, ATCC19636
Description: as §4, with “values.” for “values. Vehicle-control and an active reference agent were used as blank and positive controls, respectively.”

[15] = test system: Staphylococcus aureus ATCC BAA-1717; assay type: cell-based; conditions: Staphylococcus aureus, ATCCBAA1717
Description: as §4, with “values.” for “values. Vehicle-control and an active reference agent were used as blank and positive controls, respectively.”

[16] = test system: Staphylococcus epidermidis ATCC 12228; assay type: cell-based; conditions: Staphylococcus epidermidis, ATCC12228
Description: as §4, with “values.” for “values. Vehicle-control and an active reference agent were used as blank and positive controls, respectively.”

[17] = test system: Propionibacterium acnes ATCC 29399; assay type: cell-based; conditions: Cutibacterium acnes, ATCC29399
Description: as §4

SMILES	MIC [1]	MIC [2]	MIC [3]	MIC [4]	MIC [6]	MIC [7]	MIC [8]	MIC [9]	MIC [10]	further results
CC(=O)NC[C@H]1CN(c2ccc(N3CCOCC3)c(F)c2)C(=O)O1 [Linezolid]	6.25 µM (≈ 2.11 µg/mL)	6.25 µM (≈ 2.11 µg/mL)	6.25 µM (≈ 2.11 µg/mL)	6.25 µM (≈ 2.11 µg/mL)	6.25 µM (≈ 2.11 µg/mL)	6.25 µM (≈ 2.11 µg/mL)	6.25 µM (≈ 2.11 µg/mL)	6.25 µM (≈ 2.11 µg/mL)	6.25 µM (≈ 2.11 µg/mL)	MIC ([5]; Mupirocin-susceptible MRSA ATCC-700699 (VISA), read-out: MIC): 3.12 µM (≈ 1.05 µg/mL); MIC (S. aureus ECL 2963646): 2 µg/mL and 5.93 µM; MIC (S. aureus NARSA VRS11b): 2 µg/mL and 5.93 µM; MIC (S. aureus NARSA VRS1): 2 µg/mL and 5.93 µM; MIC (S. aureus NARSA VRS2): 2 µg/mL and 5.93 µM; MIC (S. aureus NARSA VRS3a): 4 µg/mL and 11.9 µM; MIC [11]: 1 µg/mL and 2.96 µM
CN(C)c1cc(NC(=O)CNC(C)(C)C)c(O)c2c1C[C@H]1C[C@H]3[C@H](N(C)C)C(O)=C(C(N)=O)C(=O)[C@@]3(O)C(O)=C1C2=O [Tigecycline]	–	–	–	–	–	–	–	–	–	MIC [12]: 0.063 µg/mL and 0.11 µM; MIC [13]: 0.063 µg/mL and 0.11 µM
CN[C@H](CC(C)C)C(=O)N[C@H]1C(=O)N[C@@H](CC(N)=O)C(=O)N[C@H]2C(=O)N[C@H]3C(=O)N[C@H](C(=O)N[C@H](C(=O)O)c4cc(O)cc(O)c4-c4cc3ccc4O)[C@H](O)c3ccc(c(Cl)c3)Oc3cc2cc(c3O[C@@H]2O[C@H](CO)[C@@H](O)[C@H](O)[C@H]2O[C@H]2C[C@](C)(N)[C@H](O)[C@H](C)O2)Oc2ccc(cc2Cl)[C@H]1O [Vancomycin]	0.78 µM (≈ 1.13 µg/mL)	0.78 µM (≈ 1.13 µg/mL)	0.78 µM (≈ 1.13 µg/mL)	0.78 µM (≈ 1.13 µg/mL)	1.56 µM (≈ 2.26 µg/mL)	0.78 µM (≈ 1.13 µg/mL)	0.78 µM (≈ 1.13 µg/mL)	0.78 µM (≈ 1.13 µg/mL)	0.78 µM (≈ 1.13 µg/mL)	MIC [5]: 6.25 µM (≈ 9.06 µg/mL); MIC [14]: 1 µg/mL (≈ 0.69 µM); MIC [15]: 1 µg/mL (≈ 0.69 µM); MIC [16]: 1 µg/mL (≈ 0.69 µM); MIC [17]: 0.5 µg/mL and 0.35 µM

Source: patent US20200157144A1, “ANTIMICROBIAL PEPTIDOMIMETICS” (priority 2017, published 2020)
